Data taken from article PMC6327987, “Synthesis and biological evaluation of novel N^9-heterobivalent β-carbolines as angiogenesis inhibitors” (Journal of Enzyme Inhibition and Medicinal Chemistry, 2019).

Assays:
LLC = test: MTT cytotoxicity, Lewis lung carcinoma cells; assay type: cell-based; details: Lewis lung carcinoma, MTT assay, mean ± SD of at least three determinations
Procedure: (§1) Target compounds were assayed by the MTT method for cytotoxic activity, as described previously. The panel of cell lines included gastric carcinoma (BGC-823), liver carcinoma (HepG2), breast carcinoma (MCF-7), colon carcinoma (HT-29), esophageal carcinoma (Eca-109), and Lewis lung carcinoma (LLC). Growth inhibition rates were calculated with the following equitation: Inhibition ratio (%)= ODcompd−ODblank/ODDMSO−ODblank×100% . Half maximal inhibitory concentration (IC50) of each compound was calculated using software Graph-Pad Prism (version 6.0).
(§2) All the 24 novel synthesized N^9-heterobivalent β-carbolines (5a-x) were screened for their in vitro cytotoxic activities against six different cancer cell lines, namely BGC-823 (gastric carcinoma), HepG2 (liver carcinoma), MCF-7 (breast carcinoma), HT-29 (colon carcinoma), Eca-109 (esophageal carcinoma) and LLC (Lewis lung carcinoma). The IC50 values were the average of at least three independent experiments.

Eca-109 = test: MTT cytotoxicity, esophageal carcinoma cells; assay type: cell-based; details: Homo sapiens, ECa-109, MTT assay, esophageal carcinoma Eca-109, mean ± SD of at least three determinations
Procedure: as §1, §2

MCF-7 = test: MTT cytotoxicity, breast carcinoma cells; assay type: cell-based; details: Homo sapiens, MCF7; MTT assay, breast carcinoma MCF-7, mean ± SD of at least three determinations
Procedure: as §1, §2

HepG2 = test: MTT cytotoxicity, liver carcinoma cells; assay type: cell-based; details: Homo sapiens; MTT assay, liver carcinoma HepG2, mean ± SD of at least three determinations
Procedure: as §1, §2

HT-29 = test: MTT cytotoxicity, colon carcinoma cells; assay type: cell-based; details: Homo sapiens; MTT assay, colon carcinoma HT-29, mean ± SD of at least three determinations
Procedure: as §1, §2

BGC-823 = test: MTT cytotoxicity, gastric carcinoma cells; assay type: cell-based; details: Homo sapiens; MTT assay, gastric carcinoma BGC-823, mean ± SD of at least three determinations
Procedure: as §1, §2

Compound	melting point [°C]	IC50 (LLC) [µM]	IC50 (Eca-109) [µM]	IC50 (MCF-7) [µM]	IC50 (HepG2) [µM]	IC50 (HT-29) [µM]	IC50 (BGC-823) [µM]
COc1cc(-c2nccc3c4ccccc4n(CCCCn4c5ccccc5c5ccnc(-c6cccnc6)c54)c23)cc(OC)c1OC [Compound 5m, 1–(3,4,5-trimethoxyphenyl)-9–(4-(1–(3-pyridyl)-β-carboline-9-yl)butyl)-β-carboline]	231 to 232.3	> 100	70.9 ± 8.4	> 100	85.1 ± 11.6	> 100	> 100
Clc1ccccc1-c1nccc2c3ccccc3n(CCCCn3c4ccccc4c4ccnc(-c5cccnc5)c43)c12 [Compound 5n, 1–(2-chlorophenyl)-9–(4-(1–(3-pyridyl)-β-carboline-9-yl)butyl)-β-carboline]	177.6 to 178.9	> 100	> 100	86.9 ± 15.3	> 100	72.2 ± 5.2	> 100
COc1ccc(-c2nccc3c4ccccc4n(CCCCn4c5ccccc5c5ccnc(-c6cccs6)c54)c23)cc1 [Compound 5o, 1–(4-methoxyphenyl)-9–(4-(1–(2-thienyl)-β-carboline-9-yl)butyl)-β-carboline]	232.5 to 233.3	96.8 ± 9.8	> 100	> 100	> 100	> 100	> 100
COc1ccc(-c2nccc3c4ccccc4n(CCCCn4c5ccccc5c5ccnc(-c6cccs6)c54)c23)cc1OC [Compound 5p, 1–(3,4-dimethoxyphenyl)-9–(4-(1–(2-thienyl)-β-carboline-9-yl)butyl)-β-carboline]	217.2 to 218.4	> 100	> 100	> 100	> 100	> 100	> 100
COc1cc(-c2nccc3c4ccccc4n(CCCCn4c5ccccc5c5ccnc(-c6cccs6)c54)c23)cc(OC)c1OC [Compound 5q, 1–(3,4,5-trimethoxyphenyl)-9–(4-(1–(2-thienyl)-β-carboline-9-yl)butyl)-β-carboline]	226.5 to 227.8	> 100	> 100	> 100	> 100	> 100	> 100
Clc1ccccc1-c1nccc2c3ccccc3n(CCCCn3c4ccccc4c4ccnc(-c5cccs5)c43)c12 [Compound 5r, 1–(2-chlorophenyl)-9–(4-(1–(2-thienyl)-β-carboline-9-yl)butyl)-β-carboline]	225.4 to 227.2	> 100	96.7 ± 11.9	60.7 ± 4.8	> 100	96.2 ± 5.1	> 100

Further lines, with some results ahead:

melting point [°C]	Compound	IC50 (LLC) [µM]	IC50 (Eca-109) [µM]	IC50 (MCF-7) [µM]	IC50 (HepG2) [µM]	IC50 (HT-29) [µM]	IC50 (BGC-823) [µM]
188.7 to 189.4	COc1ccc2c3ccnc(C)c3n(CCCCn3c4ccccc4c4ccnc(C)c43)c2c1 [Compound 5s, 7-methoxy-1-methyl-9–(4-(1-methyl-β-carboline-9-yl)butyl)-β-carboline]	6.2 ± 0.6	11.3 ± 2.7	36.4 ± 2.1	37.6 ± 5.8	11.1 ± 0.8	17.9 ± 1.1
163.8 to 164.5	COc1ccc2c3ccnc(C)c3n(CCCCn3c4ccccc4c4ccnc(-c5cccnc5)c43)c2c1 [Compound 5u, 7-methoxy-1-methyl-9–(4-(1–(3-pyridyl)-β-carboline-9-yl)butyl)-β-carboline]	12.2 ± 2.3	25.2 ± 5.5	23.9 ± 0.7	26.8 ± 2.8	15.1 ± 3.1	39.1 ± 2.4
183.6 to 184.9	COc1ccc2c3ccnc(C)c3n(CCCCCn3c4ccccc4c4ccnc(-c5cccnc5)c43)c2c1 [Compound 5v, 7-methoxy-1-methyl-9–(5-(1–(3-pyridyl)-β-carboline-9-yl)pentyl)-β-carboline]	11.8 ± 1.8	13.2 ± 3.6	18.7 ± 0.5	31.1 ± 3.4	13.5 ± 2.2	23.2 ± 1.5
196.1 to 197.4	COc1ccc2c3ccnc(C)c3n(CCCCCn3c4ccccc4c4ccnc(-c5cccs5)c43)c2c1 [Compound 5x, 7-methoxy-1-methyl-9–(5-(1–(2-thienyl)-β-carboline-9-yl)pentyl)-β-carboline]	12.2 ± 3.7	46.7 ± 6.9	41.6 ± 5.3	> 100	> 100	> 100
